What was measured:
[1] = ambient conditions
Protocol: A solution that remains intact to an extent acceptable for pharmaceutical use for the time required between preparing the solution and administering it to the patient (for example 2 hours, for example 1 hour) is considered herein to be “stable”.

[2] = test system: rats; settings: in 0.5% Cremophor in aqueous solution; cited from earlier work
[3] = target: MEK2 (Homo sapiens, UniProt P36507); settings: cited from earlier work
[4] = test system: female rats; settings: cited from earlier work
[5] = Calculated concentrations based on ventricle and CSF volumes; type: in vivo; settings: dog; for Cmax: Beagle, icv or intrathecal, ventricle volume 2 ml; for Cmax CSF: CSF volume 20 mL
[6] = Protocol: 0.79 g Cremophor EL (Trade Mark) was weighed in an Erlenmeyer flask, and 60 mL aCSF (obtained from Tocris Pharma) was added. […] The solution was then placed in an ultrasonic bath maintained at 25-28° C. for 20 minutes. […] The solution was ultrasonicated for another 25 minutes.
The mixture was then filtered using a Millipore Millex-LG, PTFE, 0.20 μm filter (SLLG025SS).
500 μL Cremophor EL was pipetted into an Erlenmeyer flask containing 40 mL in-house prepared aCSF. […] An additional 10 minutes of ultrasonication was carried out to ensure complete dissolution.

Chain of MEK2 (P36507 whole entry, species assumed): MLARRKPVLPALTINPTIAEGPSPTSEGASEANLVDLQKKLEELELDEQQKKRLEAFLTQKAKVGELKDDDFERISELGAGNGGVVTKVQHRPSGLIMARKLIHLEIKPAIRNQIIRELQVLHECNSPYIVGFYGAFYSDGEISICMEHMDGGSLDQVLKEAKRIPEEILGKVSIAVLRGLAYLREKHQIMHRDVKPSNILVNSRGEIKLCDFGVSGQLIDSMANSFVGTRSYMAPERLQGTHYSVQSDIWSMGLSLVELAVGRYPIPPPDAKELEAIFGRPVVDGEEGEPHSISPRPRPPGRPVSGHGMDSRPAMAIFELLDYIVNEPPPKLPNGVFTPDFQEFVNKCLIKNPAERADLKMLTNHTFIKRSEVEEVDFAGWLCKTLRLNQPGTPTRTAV

## N#CC(=C(/N)Sc1ccccc1N)/C(C#N)=C(\N)Sc1ccccc1N [Example U0126, 1,4-Diamino-2,3-dicyano-1,4-bis(o-aminophenylmercapto) butadiene]
[1]
  time solid form remains intact: several decades
[2]
  maximum tolerated intracerebroventricular (ICV) concentration in vivo: 10 µM
[3]
  inhibitor of MEK2: inhibitor
[4]
  long-term neurologic outcome after stroke: improves long-term neurologic outcome
[5]; 20 μM/0.5 mL
  Cmax: 5 µM
  Cmax CSF: 0.5 µM
[5]; 100 μM/0.5 mL
  Cmax: 25 µM
  Cmax CSF: 2.5 µM
[5]; 200 μM/0.5 mL
  Cmax: 50 µM
  Cmax CSF: 5 µM
[6]; Example 2, clear solution after 0.20 μm PTFE filtration, 0.5% v/v Cremophor EL in aCSF
  measured content of U0126: 68 µM
[6]; Example 3, 0.5% Cremophor EL in aCSF, pH 8.6, after 0.20 μm PTFE filtration
  U0126 content of filtered samples: 85 to 99 µM
